These results are taken from patent US10344004B2, “Inhibitor of the mutated isocitrate dehydrogenase IDH1 R132H” (Bayer Pharma Aktiengesellschaft, priority 2015, dated 2019).

The nature of this data set: Relative oral bioavailability (FRel experiment) in Wistar rats. In kind it is in vivo. Here is the method:
The relative bioavailability was determined by studies in Wistar rats.
Compound A was firstly administered orally in the form of a solution. For this purpose, the active ingredient was dissolved in a mixture of 80% polyethylene glycol having an average molecular weight of 400 (PEG400) and 20% water. The active ingredient solution is the reference point for determining the relative bioavailability (formulation A1).
Compound A was also administered orally in the form of a tylose suspension (formulation A2).
Compound B was likewise administered orally in the form of a tylose suspension (formulation B).
To prepare a 0.5% aqueous tylose suspension (w/v), tylose was stirred and swelled for about 12 hours in pure water, whereupon a viscous mixture was formed. Compound A and compound B were each ground into the viscous mixture, whereupon the corresponding tylose suspensions were formed (formulation A2 and formulation B).
FIGS. 1a, 1b and 1c show the plasma concentrations of the active ingredient 3-(2-{[4-(trifluoromethoxy)phenyl]amino}-1-[(1R,5R)-3,3,5-trimethylcyclohexyl]-1H-benzimidazol-5-yl)propanoic acid (active ingredient API) after oral administration of compound A in the form of a solution (formulation A1, FIG. 1a), after oral administration of compound A in the form of a suspension (formulation A2, FIG. 1b) and after oral administration of compound B in the form of a suspension (formulation B, FIG. 1c).
For formulation A1, 5 mL/kg body weight were administered. This corresponded to an amount of active ingredient API of 10 mg/kg.
For formulation A2, 5 mL/kg body weight were administered. This corresponded to an amount of active ingredient API of 10 mg/kg.
For formulation B, 2 mL/kg body weight were administered. […]
Plasma concentrations were determined by collecting about 0.4 mL of blood in each case via an indwelling venous catheter. […] The plasma samples were analyzed by LC/MS/MS with respect to the active ingredient 3-(2-{[4-(trifluoromethoxy)phenyl]amino}-1-[(1R,5R)-3,3,5-trimethylcyclohexyl]-1H-benzimidazol-5-yl)propanoic acid.

In general, bioavailability refers to the share of a dose that reaches the circulation, judged against a reference dose that is usually intravenous. High values mean good availability, low ones poor availability. In the case of `C[C@H]1C[C@@H](n2c(Nc3ccc(OC(F)(F)F)cc3)nc3cc(CCC(=O)O)ccc32)CC(C)(C)C1` [Compound A, 3-(2-{[4-(trifluoromethoxy)phenyl]amino}-1-[(1R,5R)-3,3,5-trimethylcyclohexyl]-1H-benzimidazol-5-yl)propanoic acid], the bioavailability (rat, plasma, tylose suspension (formulation A2), 10 mg/kg API, relative to PEG400/water solution (formulation A1)) is 25%.

Regarding “(2E)-but-2-enedioic acid-3-(2-{[4-(trifluoromethoxy)phenyl]amino}-1-[(1R,5R)-3,3,5-trimethylcyclohexyl]-1H-benzimidazol-5-yl)propanoic acid (1:4) [Compound B]”, the “bioavailability in the FRel experiment” value (tylose suspension (formulation B), 10.6 mg/kg API, relative to PEG400/water solution of compound A (formulation A1)) is 110%. Further, the “bioavailability compared with the pure free acid” value (tylose suspensions, comparison in words) is listed as “distinctly higher bioavailability”.
